Columns and labels:
[1] = In vitro metabolic stability in liver microsomes (calculation of CL and Fmax); assay type: in vitro ADME, human; details: 1 μM, in vitro metabolic stability given as calculated maximal oral bioavailability
Description: Determination of in vitro metabolic stability in microsomes (including calculation of hepatic in vivo blood clearance (CL) and of maximal oral bioavailability (Fmax))
The metabolic assay was started shortly afterwards by adding the test compound to the incubation at a final volume of 1 mL. Organic solvent in the incubations was limited to ≤0.01% dimethylsulfoxide (DMSO) and ≤1% acetonitrile. […] Samples were frozen at −20° C. overnight, subsequently centrifuged for 15 minutes at 3000 rpm and the supernatant was analyzed with an Agilent 1200 HPLC-system with LCMS/MS detection.
The half-life of a test compound was determined from the concentration-time plot. From the half-life (kel: slope of concentration-time plot; half-life=ln 2/kel) the intrinsic clearances were calculated. Together with the additional parameters liver blood flow, specific liver weight and microsomal protein content the hepatic in vivo blood clearance (CL) and the maximal oral bioavailability (Fmax) were calculated for the different species.
(§1) Metabolic instability is often the main clearance mechanism of xenobiotica leading to a high CL and low bioavailability which may eventually result in a short half-life and a low exposure after oral administration. Thus, reducing the susceptibility of metabolic degradation usually leads to a more favourable pharmacokinetic profile. When using liver microsomes as incubation matrix main phase I metabolic reactions, typically oxidoreductive reactions by cytochrome P450 enzymes and flavin mono-oxygenases (FMO) and hydrolytic reactions by esterases/amidases/epoxidhydrolases, are described. When the incubation of the test compound is performed in a hepatocyte matrix all potential hepatic metabolic processes (phase I and phase II) are covered.

[2] = In vitro metabolic stability in rat hepatocytes; assay type: in vitro ADME; details: 1 μM, in vitro metabolic stability given as calculated maximal oral bioavailability
Description: Determination of in vitro metabolic stability in rat hepatocytes (including calculation of hepatic in vivo blood clearance (CL))
Hepatocytes from Han Wistar rats were isolated via a 2-step perfusion method. After perfusion, the liver was carefully removed from the rat: the liver capsule was opened and the hepatocytes were gently shaken out into a Petri dish with ice-cold Williams' medium E (WME). The resulting cell suspension was filtered through sterile gaze in 50 mL falcon tubes and centrifuged at 50×g for 3 min at room temperature. The cell pellet was resuspended in 30 mL WME and centrifuged through a Percoll® gradient for 2 times at 100×g. The hepatocytes were washed again with WME and resuspended in medium containing 5% FCS. Cell viability was determined by trypan blue exclusion.
The test compound was added to a final concentration of 1 μM. […] Samples were frozen at −20° C. overnight, subsequently centrifuged for 15 minutes at 3000 rpm and the supernatant was analyzed with an Agilent 1200 HPLC-system with LCMS/MS detection.
The half-life of a test compound was determined from the concentration-time plot. From the half-life (kel: slope of concentration-time plot; half-life=ln 2/kel) the intrinsic clearances were calculated. Together with the additional parameters liver blood flow, amount of liver cells in vivo and in vitro.
as §1

[3] = Human liver cytosol stability assay; assay type: in vitro ADME; details: 4 h incubation, 37° C.
Description: Human Liver Cytosol Stability Assay
Method description: Human liver cytosol (pooled, >30 male and female donors) was incubated with individual test compounds in order to compare the extent of depletion of test compound and formation of the respective oxidised metabolite. […] An incubation volume of 1000 μL was used. The test compound was added from a stock solution in acetonitrile at 1 or 10 μM concentration in the incubation. Incubations were performed at 37° C. Reactions were stopped at 0 h and 4 h after incubation by addition of 100 μL acetonitrile to 250 μL of incubation mixture. Precipitated proteins were removed by centrifugation at approximately 3000 rpm. The supernatants were stored at approximately −20° C. until they were analysed. […]
Data analysis: The depletion of the test compound and formation of the corresponding metabolites were determined by decrease or increase of the corresponding peak area in the chromatogram after UV detection at approximately 300 nm 4 h after incubation compared to that at 0 h after incubation. […]

vaginal hyperalgesia = test: Rat dyspareunia model (visceromotor response to vaginal distension); assay type: in vivo; details: 15 mg/kg oral b.i.d. during 2 weeks, 5 and 6 weeks post-implantation
Description: The visceromotor response (VMR) to vaginal distension was used in conscious animals as an objective measure of vaginal sensitivity. Briefly, animals in estrus phase were surgically implanted with biopsies of left uterine horn (3×3 mm) around alternate cascade mesenteric arteries that supply the small intestine (4 pieces) and on the wall of the distal colon (2 pieces). To measure VMR response, 2 Teflon-coated wire electrodes were sutured in the external oblique abdominal muscle, and tunneled subcutaneously to be exteriorized at the base of the neck for future access. On the day of VMR assessment, a lubricated small balloon (1 cm length) was inserted into the mid-vaginal canal. […] The electrodes were connected to an amplifier (Animal Bio Amp, ADInstruments), and the abdominal electromyographic signal was recorded using a data acquisition system (PowerLab, ADInstruments) for off-line analysis using LabChart version 7. The number of abdominal muscle contractions was counted manually for each 0.1 ml distension step, as an index of vaginal pain. […] Statistical Analysis All data were expressed as mean±standard deviation (s.d.), for the number (n) of measured rats per group. […] Planned comparison of means (matched-volume versus vehicle) was performed using a Bonferroni post hoc test, provided that a main effect was detected. […]

[4] = clinical PhII trials; side effect attributed to blockade of P2X2/3 channels; cited from earlier work
CYP1A2 = CYP1A2 (Homo sapiens (Human), UniProt P05177); test: CYP inhibition assay, CYP1A2
Chain of CYP1A2 (P05177 whole entry): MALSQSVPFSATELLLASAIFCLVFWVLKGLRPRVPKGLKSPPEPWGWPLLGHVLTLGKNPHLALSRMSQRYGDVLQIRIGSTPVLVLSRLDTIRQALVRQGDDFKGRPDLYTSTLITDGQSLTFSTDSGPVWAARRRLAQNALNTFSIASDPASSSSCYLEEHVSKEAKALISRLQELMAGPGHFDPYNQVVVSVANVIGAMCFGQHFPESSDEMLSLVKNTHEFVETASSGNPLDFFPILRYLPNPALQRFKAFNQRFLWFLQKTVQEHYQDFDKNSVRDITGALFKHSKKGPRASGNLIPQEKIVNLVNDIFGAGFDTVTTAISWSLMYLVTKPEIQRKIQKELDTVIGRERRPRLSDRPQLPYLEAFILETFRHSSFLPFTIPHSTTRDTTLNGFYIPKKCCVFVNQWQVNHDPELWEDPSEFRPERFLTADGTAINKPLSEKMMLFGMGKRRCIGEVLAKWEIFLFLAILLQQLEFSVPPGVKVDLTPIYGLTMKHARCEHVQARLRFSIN
Description: (§2) Method Description CYP Inhibition Assay
(§3) Data analysis: The CYP-mediated activities in the presence of inhibitors were expressed as percentages of the corresponding control values. A sigmoid-shaped curve was fitted to the data, and the enzyme inhibition parameter IC50 was calculated using a nonlinear least-squares regression analysis of the plot of percent control activity versus concentration of the test inhibitor.

CYP2C8 = CYP2C8 (Homo sapiens (Human), UniProt P10632); test: CYP inhibition assay, CYP2C8; assay type: in vitro ADME; details: human liver microsomes, probe amodiquine
Chain of CYP2C8 (P10632 whole entry): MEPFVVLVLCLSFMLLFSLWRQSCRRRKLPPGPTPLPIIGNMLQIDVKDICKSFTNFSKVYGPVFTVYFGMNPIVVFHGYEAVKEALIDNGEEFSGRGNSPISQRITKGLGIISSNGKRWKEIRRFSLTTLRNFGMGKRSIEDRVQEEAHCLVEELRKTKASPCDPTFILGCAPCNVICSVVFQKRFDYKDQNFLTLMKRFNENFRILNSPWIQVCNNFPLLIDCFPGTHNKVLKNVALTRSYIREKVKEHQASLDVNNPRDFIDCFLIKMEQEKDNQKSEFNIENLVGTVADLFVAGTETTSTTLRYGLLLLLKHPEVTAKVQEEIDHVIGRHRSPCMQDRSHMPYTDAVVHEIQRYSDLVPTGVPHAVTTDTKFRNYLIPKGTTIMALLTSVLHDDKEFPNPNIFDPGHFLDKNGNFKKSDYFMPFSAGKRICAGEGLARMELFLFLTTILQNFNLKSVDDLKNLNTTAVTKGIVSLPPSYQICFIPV
Description: as §2, §3

CYP2C9 = CYP2C9 (Homo sapiens (Human), UniProt P11712); test: CYP inhibition assay, CYP2C9; assay type: in vitro ADME; details: human liver microsomes, probe diclofenac
Chain of CYP2C9 (P11712 whole entry): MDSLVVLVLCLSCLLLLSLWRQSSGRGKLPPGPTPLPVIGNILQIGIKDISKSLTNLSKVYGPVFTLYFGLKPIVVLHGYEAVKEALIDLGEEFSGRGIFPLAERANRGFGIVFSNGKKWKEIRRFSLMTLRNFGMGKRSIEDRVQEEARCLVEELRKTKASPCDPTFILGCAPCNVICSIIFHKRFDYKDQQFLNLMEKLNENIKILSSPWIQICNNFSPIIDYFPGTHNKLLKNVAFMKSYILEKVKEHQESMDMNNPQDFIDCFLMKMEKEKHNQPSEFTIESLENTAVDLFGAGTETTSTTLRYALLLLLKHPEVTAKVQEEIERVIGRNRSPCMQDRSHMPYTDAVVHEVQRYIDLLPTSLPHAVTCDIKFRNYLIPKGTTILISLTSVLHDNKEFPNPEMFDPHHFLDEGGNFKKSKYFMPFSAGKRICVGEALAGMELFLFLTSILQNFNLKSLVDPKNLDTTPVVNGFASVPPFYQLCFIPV
Description: as §2, §3

CYP2D6 = CYP2D6 (Homo sapiens (Human), UniProt P10635); test: CYP inhibition assay, CYP2D6; assay type: in vitro ADME; details: human liver microsomes, probe dextromethorphan
Chain of CYP2D6 (P10635 whole entry): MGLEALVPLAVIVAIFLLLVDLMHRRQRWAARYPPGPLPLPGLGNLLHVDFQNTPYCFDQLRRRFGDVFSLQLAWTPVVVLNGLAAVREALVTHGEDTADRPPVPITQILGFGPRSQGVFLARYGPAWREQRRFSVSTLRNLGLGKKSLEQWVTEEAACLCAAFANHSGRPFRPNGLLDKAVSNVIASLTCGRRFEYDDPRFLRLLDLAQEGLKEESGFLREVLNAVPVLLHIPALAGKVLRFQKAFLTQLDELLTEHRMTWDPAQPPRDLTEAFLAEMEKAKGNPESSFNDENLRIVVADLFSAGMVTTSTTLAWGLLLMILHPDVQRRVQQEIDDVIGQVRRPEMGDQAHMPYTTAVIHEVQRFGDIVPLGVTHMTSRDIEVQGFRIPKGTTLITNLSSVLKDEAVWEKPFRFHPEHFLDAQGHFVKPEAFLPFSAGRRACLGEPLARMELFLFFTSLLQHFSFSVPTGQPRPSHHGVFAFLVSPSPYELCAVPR
Description: as §2, §3

CYP3A4 = CYP3A4 (Homo sapiens (Human), UniProt P08684); test: CYP inhibition assay, CYP3A4; assay type: in vitro ADME; details: human liver microsomes, probe midazolam
Chain of CYP3A4 (P08684 whole entry): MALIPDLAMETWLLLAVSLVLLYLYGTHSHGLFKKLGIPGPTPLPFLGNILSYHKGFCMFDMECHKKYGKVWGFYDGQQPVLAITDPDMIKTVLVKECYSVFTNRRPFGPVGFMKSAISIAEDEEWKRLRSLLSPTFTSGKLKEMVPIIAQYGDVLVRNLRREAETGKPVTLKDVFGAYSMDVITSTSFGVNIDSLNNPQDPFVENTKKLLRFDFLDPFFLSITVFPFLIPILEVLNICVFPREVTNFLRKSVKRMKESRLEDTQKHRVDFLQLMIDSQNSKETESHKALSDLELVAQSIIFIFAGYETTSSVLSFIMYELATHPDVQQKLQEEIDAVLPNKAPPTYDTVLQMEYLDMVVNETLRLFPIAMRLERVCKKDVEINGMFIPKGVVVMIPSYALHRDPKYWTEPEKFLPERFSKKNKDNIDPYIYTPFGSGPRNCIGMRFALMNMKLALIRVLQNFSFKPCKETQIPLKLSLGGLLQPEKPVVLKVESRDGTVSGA
Description: as §2, §3

Compound	Human liver microsome Fmax [1]	Rat hepatocyte Fmax [2]	also measured
Cc1cnc(-c2cc(OC(C)C(C)O)cc(C(=O)N[C@H](C)c3cnc(C(F)(F)F)nc3)c2)s1 (single isomer, unassigned) [Example 163]	100%	53%	
Cc1cnc(-c2cc(O[C@@H]3CCOC3)cc(C(=O)N[C@H](C)c3cnc(C(F)(F)F)nc3)c2)s1 [Example 11, 3-(5-Methyl-1,3-thiazol-2-yl)-5-[(3R)-tetrahydrofuran-3-yloxy]-N-{(1R)-1-[2-(trifluoromethyl)pyrimidin-5-yl]ethyl}benzamide]	57%	52%	Test compound turnover after 4 h [3]: 0.9%; Vaginal hyperalgesia compared to vehicle-treated animals (vaginal hyperalgesia): decreased vaginal hyperalgesia
COc1cc(C(C)C)c(Oc2cnc(N)nc2N)cc1S(N)(=O)=O [AF-219]			taste disturbances in treated subjects [4]: leads to taste disturbances
Cc1cnc(-c2cc(OC(C)C(C)O)cc(C(=O)N[C@H](C)c3ccc(C(F)(F)F)nn3)c2)s1 (single isomer, unassigned) [Example 183]	74%	43%	
Cc1cnc(-c2cc(O[C@H]3CCOC3)cc(C(=O)N[C@H](C)c3cnc(C(F)(F)F)nc3)c2)s1 [Example 26, 3-(5-Methyl-1,3-thiazol-2-yl)-5-[(3S)-tetrahydrofuran-3-yloxy]-N-{(1R)-1-[2-(trifluoromethyl)pyrimidin-5-yl]ethyl}benzamide]	67%	56%	Test compound turnover after 4 h [3]: 0.9%

Second part, led by results:

Human liver microsome Fmax [1]	Rat hepatocyte Fmax [2]	Compound	also measured
74%	51%	CCc1cnc(-c2cc(OC[C@H]3CN(C)CCO3)cc(C(=O)N[C@H](C)c3ccc(C(F)(F)F)nn3)c2)s1 [Example 419, 3-(5-ethyl-1,3-thiazol-2-yl)-5-{[(2R)-4-methylmorpholin-2-yl]methoxy}-N-{(1R)-1-[6-(trifluoromethyl)pyridazin-3-yl]ethyl}benzamide]	
94%	52%	Cc1cnc(-c2cc(OC(C)C(C)O)cc(C(=O)N[C@H](C)c3cnc(C(F)(F)F)nc3)c2)s1 (single isomer, unassigned) [Example 339]	IC50 (CYP1A2): > 20 µM; IC50 (CYP2C8): > 20 µM; IC50 (CYP2C9): > 20 µM; IC50 (CYP2D6): > 20 µM; IC50 (CYP3A4): > 20 µM
90%	64%	Cc1cnc(-c2cc(OC(C)C(C)O)cc(C(=O)N[C@H](C)c3cnc(C(F)(F)F)nc3)c2)s1 (single isomer, unassigned) [Example 340]	
